The values below come from patent US6683162B2, “Targeted alpha particle therapy using actinium-255 conjugates” (Sloan Kettering Institute of Cancer Research, priority 2000, dated 2004).

The subject of series [1] is antigen negative cells (Daudi). As to the kind of experiment: Cell based immunoreactivity assay, antigen negative cells. Type of series: binding. The settings on record: on ice. How it is done: (§1) A cell based immunoreactivity assay (binding of labeled antibody to antigen excess) was used to determine the percentage of HuM195 that retained its immunoreactivity after conjugation and purification. The assay was conducted with antigen positive cells (HL60, available from American Tissue Culture Collection [ATCC]) and antigen negative cells (Daudi, ATCC).
(§2) The cells were centrifuged, the supernatant removed and the cells resuspended to a density of 10^8 cells/ml in 2% w/v bovine serum albumin in phosphate buffered saline, pH 7.2 (PBS). Aliquots of cell suspension ([…]) were transferred to microcentrifuge tubes placed on ice to which purified ^225Ac-HuM195-DOTA (3 ng) was added. The cell suspensions were incubated for 30 min, centrifuged and the supernatant containing any unbound ^225Ac-HuM195-DOTA was transferred to a second microcentrifuge tube of cell suspension. The second tube was incubated on ice for 30 min. The first cell pellets were washed with PBS and the cells and washes saved for γ emission counting. The second set of cell suspensions were centrifuged, the supernatant removed and the pellets were washed with PBS. The set of supernate, cell pellets and washes were saved for counting. The percentage of radioactivity that was associated with the cells was then determined.

The test system of series [2] is human HL60 leukemia cells. As to the kind of experiment: In vitro cytotoxicity (LD50), HL60, tritiated thymidine incorporation. Format: cell-based. Here is the method:
The potency and specificity of 225Ac-HuM195-DOTA was then evaluated in-vitro as a function of specific activity and activity concentration (FIG. 6). A suspension of HL60 cells were washed twice with complete media and then dispensed into a 96 well cell culture plate in complete media supplemented with 2% human serum. The volume was 100 μl and the cells were at a density of 5×10^5 cells/ml. Next a serial dilultion of purified ^225Ac-HuM195-DOTA was added to the wells. The diluent was complete media and volume added was 100 μl. The starting activity was 10 nCi/ml, which was diluted 5-fold for each subsequent tube. […] The cells were incubated for 2 days at 37° C., following which tritiated thymidine was added (0.5 pC, in 50 il complete media/well). The cells were incubated at 37° C. for an additional 5 h, then harvested using a Combi Cell Harvestor (Skatron Instruments). Cell viability was determined by analyzing the degree of tritiated thymidine incorporated into the DNA of the treated cells relative to control cells.
The potency and specificity of [225Ac]IgG for killing single cancer cells is determined using 5E4 cells in 0.2 mL per well in 96 well plates. Serial dilutions of [225Ac]IgG are added (triplicate) to the cells to yield final activity in the wells ranging from 74 kBl/mL to 37E-6 kB q/mL. Non-specific killing is measured after target cells are blocked with a 100-10000-fold excess of unlabeled IgG before plating and subsequent addition of [225Ac]IgG.

Series [3] relates to antigen positive cells (HL60). As to the kind of experiment: Cell based immunoreactivity assay, antigen positive cells. Particulars: HL60, antigen excess, on ice. Type of series: binding, human. How it is done: as §1, §2
The test system of series [4] is Daudi lymphoma cells. Put plainly: In vivo efficacy against disseminated Daudi lymphoma. Particulars: irrelevant control, day 1. On the set-up: species or system mouse. How it is done: Daudi lymphoma cells are disseminated into 8-12 week old female Scid mice via an intravenous (i.v.) injection of 5E6 Daudi tumor cells in the tail vein; mice experience a 100% tumor take rate in the model (20). In this lymphoma therapy experiment mice are treated 1 day post-tumor dissemination via intravenous injection. Animals are monitored for signs of illness and hind leg paralysis or inability to breathe or ambulate at which time they are sacrificed.
In the first experiment with this disseminated model, mice are treated 1 day post-tumor dissemination with a single dose of labeled specific [225Ac]B4 at three different dose levels, irrelevant control [225Ac]HuM195 at two dose levels, or a mass of unlabeled B4 matching the antibody mass dose administered in the highest dose level radiolabeled groups. Control groups receiving the irrelevant [225Ac]HuM195 have median survival times from xenograft of 43 days and 36 days. Mice receiving 0.003 mg unlabeled B4 per mouse have a median survival time of 57 days from xenograft. The mice receiving a single injection of [225Ac]B4 show dose-related increases in median survival times from xenograft to 165, 137 and 99 days, respectively. The dose response of [225Ac]B4 is significant with P=0.05. […]

Series [5] relates to HL60 cells. Put plainly: In vitro internalization of 225Ac-HuM195-DOTA. Type of series: cell-based, human. Particulars: 37° C., in 5 hours. How it is done:
The internalizing ability of the purified ^225Ac-HuM195-DOTA was tested with HL60 cells. The cells were washed twice with complete media and then incubated for 20 min on ice in complete media containing 2% rabbit serum. The cells were washed twice with ice cold complete media and then resuspended in 5 ml of complete media at a density of 5×10^6 cells/ml. After placing the cell suspension on ice purified ^225Ac-HuM195-DOTA (15 ng) was added. After mixing a sample of the sample of the cell suspension as taken and the rest of the cell suspension was placed into a 37° C. incubator. At various time points samples of the cell suspensions were taken. The samples were centrifuged, the supernatant removed and the cells washed twice with ice cold PBS. Stripping buffer (50 mM glycine, 150 mM NaCl, pH 2.8) was added to the cells and allowed to incubate for 10 min at room temperature. The cells were centrifuged and the supernatant drawn off and saved for counting. The cell pellet was washed once with PBS and both the cell pellet and wash were saved for counting.

Series [6] is described as follows: Toxicity of [225Ac]DOTA-HuM195 i.v. in cynamologous monkeys. Type of series: in vivo, cynamologous monkey. The settings on record: 9 months out. How it is done: Two male cynamologous monkeys (3-5 kg) were injected i.v. 9 months ago with an initial 0.002-0.005 mCi dose of [225Ac]DOTA-HuM195 per monkey and then 6 weeks later with a 0.017-0.020 mCi dose of [225Ac]DOTA-HuM195. Animals are followed by serial blood sampling and observation of activity and appearance as a function of time.

Take 225Ac-HuM195-DOTA: the “activity retained by the cells (immunoreactivity)” value in series [1] was 2%. The LD50 was 185.0 Bq/mL in series [2] (HL60 (non-specific), excess unlabeled antibody, S.A. 0.089 GBq/g); 0.3 Bq/mL in series [2] (HL60 (specific), S.A. 8.9 GBq/g); 8 pCi/mL in series [2] (HL60, Ac-225 construct, S.A. 0.24 Ci/g); “about 1.3 nCi/ml” in series [2] (HL60, specific activity 0.094 nCi/ng, 2 days at 37° C. then tritiated thymidine 5 h). Further, in series [3], the “activity associated with the cells (immunoreactivity)” value is reported as 74%. For the same substance, the “median survival time from xenograft” value in series [4] (first-named of two dose levels (5550 Bq per FIG. 8A, order assumed)) was determined as 43 days; in series [4] (second-named of two dose levels (1850 Bq per FIG. 8A, order assumed)) it was 36 days. The activity internalized in series [5] turned out to be 50%. In addition, the evidence of toxicity result in series [6] (i.v. 0.002-0.005 mCi then 0.017-0.020 mCi 6 weeks later) is recorded as “no evidence of toxicity”. Moreover, in series [6] (i.v.), the “hepatic, renal and hematopoietic function” value was “did not change”.
